These results are taken from patent US10736888B2, “Triple combination” (HELPERBY THERAPEUTICS LIMITED, priority 2015, dated 2020).

One assay concerns S. aureus on pig skin. The experiment in a line: antimicrobial activity against S. aureus on pig skin (swab, CFU counting, log kill). In kind it is cell-based, Staphylococcus aureus (Oxford). The conditions noted are these: Example 3; 2 hours after application; inoculum 7.6 (7.62 = complete kill). On the procedure: Staphylococcus aureus (Oxford); Gram positive; Reference strain.
Bacterial cultures were prepared by inoculation of 10 ml of nutrient broth with a single colony of bacteria on blood agar or TSA and incubated at 37° C. with continuous shaking at 100 rpm for 16 to 24 hours. The overnight cultures were used for experimental tests.
For CFU counting, the bacterial suspensions were diluted using sterile deionized water or phosphate-buffered saline (PBS, Sigma Aldrich Ltd, Poole, Dorset, UK). 100 μl of 10-fold serial dilutions of bacteria culture were plated on one third of TSA plates in triplicate and incubated 24 to 48 hours at 37° C. The number of cells presented on the plates was counted using an AcoLyte colony counter (Synbiosis) and results were expressed as Colony Forming Units/ml (CFU/ml).
The efficacy of each of the above formulations F017A, F017B and F019 was assessed against S. aureus on pig skin. The S. aureus culture was grown overnight according to methods known in the art. The overnight culture was then spread on pig skin: 40 μl of culture was used for 2 cm^3 of pig skin. Each of the formulations F017A, F017B and F019 was then applied to the pig skin.
After 2 hours and 5 hours from application of each formulation, the pig skin was swabbed and bacteria on the swab were processed for CFU counting. The results for F017A, F017B and F019 against a control experiment (where no triple combination was applied to the pig skin) and against commercially available products Bactroban® cream (mupirocin) and Naseptin® (chlorhexidine and neomycin) are shown in FIG. 1.
The efficacy of each of the above formulations F017A, F017B and F019 was again assessed against S. aureus on pig skin. The S. aureus culture was grown overnight according to methods known in the art. The overnight culture was then spread on pig skin: 40 μl of culture was used for 2 cm^3 of pig skin. […]
The efficacy of each of the above formulations F017A, F022A, F022B, F022C, F022D, F022E, F022F, and F022G was assessed against S. aureus on pig skin. […]

For assay [1], the system named is clinically latent microorganisms. Put plainly: screening for ability to kill clinically latent microorganisms (WO2000028074 method). The assay is classed as cell-based. The source says: International Patent Application, Publication Number WO2000028074 describes a method of screening compounds to determine their ability to kill clinically latent microorganisms. […] This observation has necessitated the development of novel antimicrobials which may be used to kill clinically latent microorganisms.
By way of example, WO2000028074 describes a suitable method of screening compounds to determine their ability to kill clinically latent microorganisms. A typical method may include the following steps: • (1) growing a bacterial culture to stationary phase; • (2) treating the stationary phase culture with one or more antimicrobial agents at a concentration and or time sufficient to kill growing bacteria, thereby selecting a phenotypically resistant sub-population; • (3) incubating a sample of the phenotypically resistant subpopulation with one or more test compounds or agents; and • (4) assessing any antimicrobial effects against the phenotypically resistant subpopulation.

For `Cc1nc2ccc(Oc3ccccc3)cc2c2c1CCN2CCc1ccccc1` [HT61, 4-methyl-8-phenoxy-1-(2-phenylethyl)-2,3-dihydro-1H-pyrrolo[3,2-c]quinoline], the “Log Kill 2 h” value in the assay with S. aureus on pig skin is given as 1.87.
In the case of `C/C(=C\C(=O)OCCCCCCCCC(=O)O)C[C@@H]1OC[C@H](C[C@@H]2O[C@H]2[C@@H](C)[C@H](C)O)[C@@H](O)[C@H]1O` [mupirocin], in the assay with S. aureus on pig skin, the “Log Kill 2 h” value is recorded as 0.49. The “activity against clinically latent microorganisms” value in assay [1] is on record as “little or no activity”.
As to neomycin, the “Log Kill 2 h” value with S. aureus on pig skin was 4.56. Also, the “activity against clinically latent microorganisms” value in assay [1] is listed as “little or no activity”.
